{
  "source": "patent US8889591B2",
  "about": "“Herbicidal compositions comprising 4-amino-3-chloro-5-fluoro-6-(4-chloro-2-fluoro-3-methoxyphenyl)pyridine-2-carboxylic acid or a derivative thereof and bromobutide, daimuron, oxaziclomefone or pyributicarb” (Dow Agrosciences LLC, priority 2012, dated 2014)",
  "test_in_all_cases": "Postemergence foliar-applied greenhouse weed control, direct-seeded rice system",
  "key": {"[1]": {"test_system": "SCPJU", "assay_type": "in vivo, Schoenoplectus juncoides (Roxb.) Palla", "description": "Seeds or nutlets of the desired test plant species were planted in a soil matrix prepared by mixing a loam or sandy loam soil (e.g., 28.6 percent silt, 18.8 percent clay, and 52.6 percent sand, with a pH of about 5.8 and an organic matter content of about 1.8 percent) and calcareous grit in an 80 to 20 ratio. The soil matrix was contained in plastic pots with a volume of 1 quart and a surface area of 83.6 square centimeters (cm^2). When required to ensure good germination and healthy plants, a fungicide treatment and/or other chemical or physical treatment was applied. The plants were grown for 8-22 days in a greenhouse with an approximate 14 h photoperiod which was maintained at about 29° C. during the day and 26° C. during the night. Nutrients (Peters Excel® 15-5-15 5-Ca 2-Mg and iron chelate) were applied in the irrigation solution as needed and water was added on a regular basis. Supplemental lighting was provided with overhead metal halide 1000-Watt lamps as necessary. The plants were employed for testing when they reached the first through fourth true leaf stage. […]\n(§1) Treatment requirements were calculated based upon the rates being tested, the concentration of active ingredient or acid equivalent in the formulation, and a 12 mL application volume at a rate of 187 L/ha.\nFor treatments comprised of formulated compounds, measured amounts of compounds were placed individually in 25 mL glass vials and diluted in a volume of 1.25% (v/v) Agri-Dex® crop oil concentrated to obtain 12× stock solutions. […]\nFor treatments comprised of formulated and technical compounds, weighed amounts of the technical materials were placed individually in 25 mL glass vials and dissolved in a volume of 97:3 v/v acetone/DMSO to obtain 12× stock solutions, and measured amounts of the formulated compounds were placed individually in 25 mL glass vials and diluted in a volume of 1.5% (v/v) crop oil concentrate or water to obtain 12× stock solutions. […]"}, "[2]": {"test_system": "BRAPP", "assay_type": "in vivo", "description": "(§2) Seeds or nutlets of the desired test plant species were planted in a soil matrix prepared by mixing a loam or sandy loam soil (e.g., 28.6 percent silt, 18.8 percent clay, and 52.6 percent sand, with a pH of about 5.8 and an organic matter content of about 1.8 percent) and calcareous grit in an 80 to 20 ratio. The soil matrix was contained in plastic pots with a volume of 1 quart and a surface area of 83.6 square centimeters (cm^2). When required to ensure good germination and healthy plants, a fungicide treatment and/or other chemical or physical treatment was applied. The plants were grown for 8-22 days in a greenhouse with an approximate 14 h photoperiod which was maintained at about 29° C. during the day and 26° C. during the night. Nutrients (Peters Excel® 15-5-15 5-Ca 2-Mg and iron chelate) were applied in the irrigation solution as needed and water was added on a regular basis. Supplemental lighting was provided with overhead metal halide 1000-Watt lamps as necessary. The plants were employed for testing when they reached the first through fourth true leaf stage.\n(§3) Treatments consisted of the acid or esters of 4-amino-3-chloro-5-fluoro-6-(4-chloro-2-fluoro-3-methoxy-phenyl)pyridine-2-carboxylic acid (Compound A), each formulated as an SC (suspension concentrate), and various herbicidal components alone and in combination. Forms of compound A were applied on an acid equivalent basis.\n(§4) Other herbicidal components were applied on an active ingredient basis and included diamuron formulated as an EC (emulsifiable concentrate) and oxaziclomefone (technical grade material).\nas §1\n(§5) For treatments comprised of formulated compounds, measured amounts of compounds were placed individually in 25 mL glass vials and diluted in a volume of 1.25% (v/v) Agri-Dex® crop oil concentrated to obtain 12× stock solutions. […] Application solutions were prepared by adding an appropriate amount of each stock solution (e.g., 1 mL) and diluted to the appropriate final concentrations with the addition of 10 mL of an aqueous mixture of 1.25% (v/v) crop oil concentrate so that the final spray solutions contained 1.25+/−0.05% (v/v) crop oil concentrate.\n(§6) For treatments comprised of technical compounds, weighed amounts can be placed individually in 25 mL glass vials and dissolved in a volume of 97:3 v/v acetone/DMSO to obtain 12× stock solutions. […] Application solutions can be prepared by adding an appropriate amount of each stock solution (e.g., 1 mL) and diluted to the appropriate final concentrations with the addition of 10 mL of an aqueous mixture of 1.5% (v/v) crop oil concentrate so that the final spray solutions contain 1.25% (v/v) crop oil concentrate. When technical materials are used, the concentrated stock solutions can be added to the spray solutions so that the final acetone and DMSO concentrations of the application solutions are 16.2% and 0.5%, respectively.\n(§7) For treatments comprised of formulated and technical compounds, weighed amounts of the technical materials were placed individually in 25 mL glass vials and dissolved in a volume of 97:3 v/v acetone/DMSO to obtain 12× stock solutions, and measured amounts of the formulated compounds were placed individually in 25 mL glass vials and diluted in a volume of 1.5% (v/v) crop oil concentrate or water to obtain 12× stock solutions. […] Application solutions were prepared by adding an appropriate amount of each stock solution (e.g., 1 mL) and diluted to the appropriate final concentrations with the addition of an appropriate amount of an aqueous mixture of 1.5% (v/v) crop oil concentrate so that the final spray solutions contained 1.25% (v/v) crop oil concentrate. […]"}, "[3]": {"test_system": "ECHCG", "assay_type": "in vivo, Echinochloa crusgalli (L.) Beauv.", "description": "as §2, §3, §4, §1, §5, §6, §7"}, "[4]": {"details": "Compound A Benzyl Ester 4.38 gae/ha alone"}, "[5]": {"details": "Compound A Benzyl Ester 8.75 gae/ha alone"}},
  "data": [
    {"molecule": "COc1c(Cl)ccc(-c2nc(C(=O)OCc3ccccc3)c(Cl)c(N)c2F)c1F", "note": "[Compound A Benzyl Ester]", "values": [
      {"measurement": "Visual Weed Control (%) - 22 DAA SCPJU Obs", "setting": "[1]; [4]", "result": 75, "unit": "%"},
      {"measurement": "Visual Weed Control (%) - 22 DAA SCPJU Obs", "setting": "[1]; [5]", "result": 80, "unit": "%"},
      {"measurement": "Visual Weed Control (%) - 20 DAA BRAPP Obs", "setting": "[2]; [4]", "result": 50, "unit": "%"},
      {"measurement": "Visual Weed Control (%) - 20 DAA BRAPP Obs", "setting": "[2]; [5]", "result": 70, "unit": "%"},
      {"measurement": "Visual Weed Control (%) - 20 DAA ECHCG Obs", "setting": "[3]; [4]", "result": 40, "unit": "%"},
      {"measurement": "Visual Weed Control (%) - 20 DAA ECHCG Obs", "setting": "[3]; [5]", "result": 90, "unit": "%"}
    ]}
  ]
}
